Test results from patent US11878049B1, “Mitapivat therapy and modulators of cytochrome P450” (Agios Pharmaceuticals, Inc., priority 2019, dated 2024).

How the values were obtained:
Format in all cases: in vitro ADME
CYP2C9 = CYP2C9 (Homo sapiens, UniProt P11712); assay: CYP enzyme inhibition
[1] = target: T1, breast cancer resistance protein (BCRP) (Homo sapiens, UniProt Q9UNQ0); assay: Transporter inhibition
T1 sequence (Q9UNQ0 1-655): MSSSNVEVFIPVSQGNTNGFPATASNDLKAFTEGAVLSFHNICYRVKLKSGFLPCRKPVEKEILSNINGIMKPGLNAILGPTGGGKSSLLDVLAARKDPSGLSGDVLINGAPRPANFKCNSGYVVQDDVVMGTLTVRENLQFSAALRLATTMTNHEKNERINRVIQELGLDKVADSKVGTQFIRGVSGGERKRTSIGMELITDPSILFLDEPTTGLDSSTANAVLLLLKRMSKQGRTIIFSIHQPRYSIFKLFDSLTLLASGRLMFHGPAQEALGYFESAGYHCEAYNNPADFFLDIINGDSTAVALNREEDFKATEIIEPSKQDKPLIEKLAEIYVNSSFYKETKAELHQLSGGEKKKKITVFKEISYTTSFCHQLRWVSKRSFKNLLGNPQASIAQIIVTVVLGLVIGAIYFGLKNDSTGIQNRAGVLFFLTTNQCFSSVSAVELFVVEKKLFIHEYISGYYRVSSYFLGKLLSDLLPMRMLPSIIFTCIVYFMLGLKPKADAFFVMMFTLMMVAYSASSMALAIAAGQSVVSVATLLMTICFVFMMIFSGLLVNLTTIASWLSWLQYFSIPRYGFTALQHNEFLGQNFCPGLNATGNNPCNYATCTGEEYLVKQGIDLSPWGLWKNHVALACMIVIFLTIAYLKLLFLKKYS

P-gp = P-gp (Homo sapiens, UniProt P08183); assay: Transporter inhibition
CYP1A2 = target: T2, CYP1A2 (Homo sapiens, UniProt P05177); assay: CYP-enzyme phenotyping using human liver microsomes and recombinant CYP enzymes
T2 construct: CYP-enzyme phenotyping using human liver microsomes and recombinant CYP enzymes; from tissue; host or cells: human liver microsomes

CYP2C8 = CYP2C8 (Homo sapiens, UniProt P10632); assay: as above; parameters: CYP-enzyme phenotyping using human liver microsomes and recombinant CYP enzymes; from tissue; host or cells: human liver microsomes
Chain of CYP2C8 (P10632 whole entry): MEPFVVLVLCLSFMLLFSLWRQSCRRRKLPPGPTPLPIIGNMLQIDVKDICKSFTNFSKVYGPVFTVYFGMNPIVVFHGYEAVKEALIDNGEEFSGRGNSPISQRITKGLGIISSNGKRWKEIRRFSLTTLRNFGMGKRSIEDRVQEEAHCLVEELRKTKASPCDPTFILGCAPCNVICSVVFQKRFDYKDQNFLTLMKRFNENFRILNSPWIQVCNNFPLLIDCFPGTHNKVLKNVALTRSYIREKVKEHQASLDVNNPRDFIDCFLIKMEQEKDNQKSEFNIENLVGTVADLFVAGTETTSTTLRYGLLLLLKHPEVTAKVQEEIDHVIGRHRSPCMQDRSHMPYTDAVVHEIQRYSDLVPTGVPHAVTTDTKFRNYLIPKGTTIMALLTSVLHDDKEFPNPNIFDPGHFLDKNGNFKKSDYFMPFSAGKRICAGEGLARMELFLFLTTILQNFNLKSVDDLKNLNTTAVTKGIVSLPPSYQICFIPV

Chain of P-gp (P08183 whole entry): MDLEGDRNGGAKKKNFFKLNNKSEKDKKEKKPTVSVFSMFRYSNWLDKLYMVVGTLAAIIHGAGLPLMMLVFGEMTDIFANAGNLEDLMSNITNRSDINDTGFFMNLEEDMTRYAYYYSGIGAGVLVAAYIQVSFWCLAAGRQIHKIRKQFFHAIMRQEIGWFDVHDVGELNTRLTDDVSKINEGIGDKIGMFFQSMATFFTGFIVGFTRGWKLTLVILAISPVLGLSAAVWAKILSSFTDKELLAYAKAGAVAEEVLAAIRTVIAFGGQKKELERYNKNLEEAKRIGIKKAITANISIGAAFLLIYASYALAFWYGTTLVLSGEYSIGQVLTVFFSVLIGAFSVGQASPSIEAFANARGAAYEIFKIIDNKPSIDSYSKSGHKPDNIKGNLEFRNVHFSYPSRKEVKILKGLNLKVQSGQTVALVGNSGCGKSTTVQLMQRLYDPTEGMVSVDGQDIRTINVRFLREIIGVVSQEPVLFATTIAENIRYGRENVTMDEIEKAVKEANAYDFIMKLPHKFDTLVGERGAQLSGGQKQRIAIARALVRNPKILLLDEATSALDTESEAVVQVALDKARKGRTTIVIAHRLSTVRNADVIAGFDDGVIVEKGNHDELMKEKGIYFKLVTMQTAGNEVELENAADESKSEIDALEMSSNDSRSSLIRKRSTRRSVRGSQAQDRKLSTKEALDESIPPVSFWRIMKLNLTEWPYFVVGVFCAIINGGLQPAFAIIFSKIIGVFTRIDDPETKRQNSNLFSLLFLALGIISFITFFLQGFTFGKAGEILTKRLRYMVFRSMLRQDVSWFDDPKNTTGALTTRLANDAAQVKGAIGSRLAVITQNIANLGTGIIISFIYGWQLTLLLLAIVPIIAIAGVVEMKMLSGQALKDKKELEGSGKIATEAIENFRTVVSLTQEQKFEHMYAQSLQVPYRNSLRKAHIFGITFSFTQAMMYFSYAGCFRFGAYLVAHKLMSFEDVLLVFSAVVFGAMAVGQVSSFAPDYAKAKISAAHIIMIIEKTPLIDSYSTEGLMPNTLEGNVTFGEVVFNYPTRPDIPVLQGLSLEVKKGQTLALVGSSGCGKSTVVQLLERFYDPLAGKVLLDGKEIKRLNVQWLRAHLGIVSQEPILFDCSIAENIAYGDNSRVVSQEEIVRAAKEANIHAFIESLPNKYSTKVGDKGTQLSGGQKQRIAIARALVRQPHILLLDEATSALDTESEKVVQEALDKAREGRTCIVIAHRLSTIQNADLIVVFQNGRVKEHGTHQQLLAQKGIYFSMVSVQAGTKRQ
Chain of CYP2C9 (P11712 whole entry): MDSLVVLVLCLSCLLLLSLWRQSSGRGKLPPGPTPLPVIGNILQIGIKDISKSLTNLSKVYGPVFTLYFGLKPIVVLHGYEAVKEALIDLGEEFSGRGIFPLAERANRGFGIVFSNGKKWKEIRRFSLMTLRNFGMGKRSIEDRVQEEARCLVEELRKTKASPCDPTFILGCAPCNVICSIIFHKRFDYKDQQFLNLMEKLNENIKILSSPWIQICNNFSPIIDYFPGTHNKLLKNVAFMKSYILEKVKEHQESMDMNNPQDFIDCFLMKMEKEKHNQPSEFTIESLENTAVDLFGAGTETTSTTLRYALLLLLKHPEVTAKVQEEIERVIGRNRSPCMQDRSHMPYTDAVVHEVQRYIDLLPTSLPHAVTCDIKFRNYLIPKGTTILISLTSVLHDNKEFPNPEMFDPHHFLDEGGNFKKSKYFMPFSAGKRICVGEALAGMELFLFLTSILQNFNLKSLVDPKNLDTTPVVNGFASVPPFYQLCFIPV
T2 sequence (P05177 whole entry): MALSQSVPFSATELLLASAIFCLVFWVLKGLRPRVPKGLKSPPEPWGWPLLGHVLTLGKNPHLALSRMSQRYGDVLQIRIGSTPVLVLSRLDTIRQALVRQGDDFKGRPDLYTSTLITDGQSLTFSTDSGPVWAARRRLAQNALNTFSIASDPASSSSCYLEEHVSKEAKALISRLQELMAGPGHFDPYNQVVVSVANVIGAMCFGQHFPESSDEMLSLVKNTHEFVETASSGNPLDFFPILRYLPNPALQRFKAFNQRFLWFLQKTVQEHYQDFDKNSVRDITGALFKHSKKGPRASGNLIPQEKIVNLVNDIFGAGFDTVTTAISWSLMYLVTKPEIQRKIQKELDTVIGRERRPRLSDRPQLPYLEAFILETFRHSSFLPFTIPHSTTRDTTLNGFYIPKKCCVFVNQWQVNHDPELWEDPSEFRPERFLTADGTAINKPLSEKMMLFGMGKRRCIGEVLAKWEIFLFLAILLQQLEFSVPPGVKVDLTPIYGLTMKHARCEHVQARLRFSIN

Inhibition of CYP2C9 (CYP2C9) | Inhibitor for BCRP [1] | Inhibitor for P-gp (P-gp) | Contribution of CYP1A2 to metabolism (CYP1A2) | Contribution of CYP2C8 to metabolism (CYP2C8) | Compound
mild inhibitor | not an inhibitor | not an inhibitor |  |  | O=C(c1ccc(NS(=O)(=O)c2cccc3cccnc23)cc1)N1CCNCC1 [Metabolite]
 |  |  | minor contributions | minor contributions | O=C(c1ccc(NS(=O)(=O)c2cccc3cccnc23)cc1)N1CCN(CC2CC2)CC1 [Mitapivat, N-(4-(4-(cyclopropylmethyl)piperazine-1-carbonyl)phenyl)quinoline-8-sulfonamide]
